For 20 molecules, IC50 results are on record in patent US20230295157A1, “3-(1H-IMIDAZOL-2-YL)-2,3,8,8A-TETRAHYDROINDOLIZIN-5(1H)-ONE DERIVATIVES USEFUL AS FACTOR XIA INHIBITORS” (JANSSEN PHARMACEUTICA NV, priority 2020, published 2023).

SMILES strings stand for the structures. Read-outs that look alike come from different tables or passages of the source. Where only a bound is given, the exact number is not on record here.

One experiment deals with Factor XIa (Homo sapiens (Human), UniProt P03951). The experiment can be described thus: Factor XIa inhibition assay (FLINT) utilizing a fluorophore-quencher pair peptide substrate. Format: biochemical. To be noted: 30 min preincubation, read-out: FXIa Kin Inh IC50. The method, boiled down:
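FXIa ([…]) preincubated 30 min with compound (11-point 3-fold dilution, top 100 nM, 2% DMSO), then 15 μM quenched FXI Arg146-based peptide added; Tris pH 7.5, CaCl2, BSA, CHAPS. Fluorescence 485/520 nm read kinetically every 5 min over 30 min at RT; IC50 by 4-parameter fit.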

The target of a further experiment is human plasma kallikrein (Homo sapiens (Human), UniProt P03952). The experiment can be described thus: Kallikrein inhibition assay (FLINT) utilizing a quenched AMC peptide substrate. Conditions: 30 min preincubation, read-out: Kallikrein Kin Inh IC50. The experiment is classed as biochemical. The method, boiled down: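 Enzyme (2 nM final) pre-incubated 30 min at room temperature with compound (11-point, 3-fold, top 1 μM, 2% DMSO), then 50 μM Z-Gly-Pro-Arg-AMC added in Tris pH 7.5 buffer. Kinetic fluorescence 340/440 nm every 5 min over 30 min; IC50 from 4-parameter logistic fit.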

The mark [1] stands for this setting: kinetic reads over 30 min, 5Fam-KLTRAETV-K5Tamra substrate 15 μM.
Where [2] appears, read: kinetic reads over 30 min, Z-Gly-Pro-Arg-AMC substrate 50 μM.

Sequence of human plasma kallikrein (P03952 391-638): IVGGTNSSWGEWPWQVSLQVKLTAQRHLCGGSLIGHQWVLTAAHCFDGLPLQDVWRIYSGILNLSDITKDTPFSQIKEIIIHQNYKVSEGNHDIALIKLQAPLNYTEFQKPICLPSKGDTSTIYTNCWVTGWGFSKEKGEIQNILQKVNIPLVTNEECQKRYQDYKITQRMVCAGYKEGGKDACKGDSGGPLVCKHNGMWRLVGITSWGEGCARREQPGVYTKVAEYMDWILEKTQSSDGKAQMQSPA
Sequence of human plasma kallikrein (P03952 20-390 partner): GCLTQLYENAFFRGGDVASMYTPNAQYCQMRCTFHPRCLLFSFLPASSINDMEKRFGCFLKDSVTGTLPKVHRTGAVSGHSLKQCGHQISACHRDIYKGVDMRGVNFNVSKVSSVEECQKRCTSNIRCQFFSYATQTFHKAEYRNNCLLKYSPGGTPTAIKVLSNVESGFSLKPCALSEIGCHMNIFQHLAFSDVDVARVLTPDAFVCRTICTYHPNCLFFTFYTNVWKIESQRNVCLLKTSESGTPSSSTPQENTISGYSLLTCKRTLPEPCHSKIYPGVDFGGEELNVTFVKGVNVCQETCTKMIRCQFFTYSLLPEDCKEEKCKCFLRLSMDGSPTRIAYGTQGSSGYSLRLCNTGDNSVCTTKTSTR
Sequence of Factor XIa (P03951 388-625): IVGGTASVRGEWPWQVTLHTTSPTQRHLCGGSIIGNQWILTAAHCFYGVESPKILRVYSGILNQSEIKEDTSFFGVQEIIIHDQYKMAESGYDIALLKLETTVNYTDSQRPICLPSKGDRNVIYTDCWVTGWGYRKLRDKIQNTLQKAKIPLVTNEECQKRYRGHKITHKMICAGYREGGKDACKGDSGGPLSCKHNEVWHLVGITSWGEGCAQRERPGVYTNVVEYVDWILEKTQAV
Sequence of Factor XIa (P03951 19-387 partner): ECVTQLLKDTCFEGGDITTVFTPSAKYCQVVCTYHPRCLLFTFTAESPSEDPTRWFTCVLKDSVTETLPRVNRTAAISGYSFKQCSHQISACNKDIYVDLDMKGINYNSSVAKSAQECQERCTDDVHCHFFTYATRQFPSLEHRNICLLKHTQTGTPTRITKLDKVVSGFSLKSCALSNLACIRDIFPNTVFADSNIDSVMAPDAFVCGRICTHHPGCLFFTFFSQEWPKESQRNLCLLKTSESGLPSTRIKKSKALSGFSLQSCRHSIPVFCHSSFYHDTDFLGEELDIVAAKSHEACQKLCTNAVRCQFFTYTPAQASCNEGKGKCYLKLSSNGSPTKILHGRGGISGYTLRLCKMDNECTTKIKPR

As for `COC(=O)Nc1ccc(-c2cnc([C@@H]3CCC4CC(c5c(-n6cnnn6)ccc(Cl)c5F)=CC(=O)N43)[nH]2)cc1` (stereo partly drawn) [Example 355, Methyl (4-(2-((3S)-7-(3-chloro-2-fluoro-6-(1H-tetrazol-1-yl)phenyl)-5-oxo-1,2,3,5,8,8a-hexahydroindolizin-3-yl)-1H-imidazol-5-yl)phenyl)carbamate], the half-maximal inhibitory concentration (IC50) came out at 0.0002 µM on Factor XIa (setting [1]) and 0.0014 µM on human plasma kallikrein (setting [2]).
For `Nc1ccc(-c2cnc([C@H]3CC[C@@H]4CC(c5c(-n6cnnn6)ccc(Cl)c5F)=CC(=O)N43)[nH]2)c(F)n1` [Example 356, (3R,8aR)-3-(5-(6-Amino-2-fluoropyridin-3-yl)-1H-imidazol-2-yl)-7-(3-chloro-2-fluoro-6-(1H-tetrazol-1-yl)phenyl)-2,3,8,8a-tetrahydroindolizin-5(1H)-one], the 50% inhibitory concentration (IC50) on Factor XIa (μM, kinetic reads) was 7.4 µM; at human plasma kallikrein (μM, kinetic reads) it was more than 10 µM.
Regarding `Nc1ccc(-c2cnc([C@H]3CC[C@H]4CC(c5c(-n6cnnn6)ccc(Cl)c5F)=CC(=O)N43)[nH]2)c(F)n1` [Example 357, (3R,8aS)-3-(5-(6-Amino-2-fluoropyridin-3-yl)-1H-imidazol-2-yl)-7-(3-chloro-2-fluoro-6-(1H-tetrazol-1-yl)phenyl)-2,3,8,8a-tetrahydroindolizin-5(1H)-one], the 50% inhibitory concentration (IC50) amounted to 0.0641 µM on Factor XIa (setting [1]) and 2.3 µM at human plasma kallikrein (μM, kinetic reads).
Turning to `Nc1ccc(-c2cnc([C@@H]3CC[C@@H]4CC(c5c(-n6cnnn6)ccc(Cl)c5F)=CC(=O)N43)[nH]2)c(F)n1` [Example 358, (3S,8aR)-3-[5-(6-amino-2-fluoro-3-pyridyl)-1H-imidazol-2-yl]-7-[3-chloro-2-fluoro-6-(tetrazol-1-yl)phenyl]-2,3,8,8a-tetrahydro-1H-indolizin-5-one], the concentration for half-maximal inhibition (IC50) at Factor XIa (kinetic reads over 30 min, 5Fam-[…]-K5Tamra substrate 15 μM) worked out at 0.0003 µM; at human plasma kallikrein (setting [2]), 0.0068 µM.
Regarding `Nc1ccc(-c2cnc([C@@H]3CC[C@H]4CC(c5c(-n6cnnn6)ccc(Cl)c5F)=CC(=O)N43)[nH]2)c(F)n1` [Example 359, (3S,8aS)-3-(5-(6-Amino-2-fluoropyridin-3-yl)-1H-imidazol-2-yl)-7-(3-chloro-2-fluoro-6-(1H-tetrazol-1-yl)phenyl)-2,3,8,8a-tetrahydroindolizin-5(1H)-one], the IC50 on Factor XIa (setting [1]) stood at 0.0005 µM; on human plasma kallikrein (setting [2]), 0.011 µM.
On to `O=C1C=C(c2c(-n3cnnn3)ccc(Cl)c2F)C[C@H]2CC[C@@H](c3ncc(-c4ccnc5c4OCCO5)[nH]3)N12` [Example 361, (3S,8aR)-7-[3-chloro-2-fluoro-6-(tetrazol-1-yl)phenyl]-3-[5-(2,3-dihydro-[1,4]dioxino[2,3-b]pyridin-8-yl)-1H-imidazol-2-yl]-2,3,8,8a-tetrahydro-1H-indolizin-5-one], for which the values for the IC50 at Factor XIa (setting [1]) and on human plasma kallikrein (setting [2]) were 0.0007 µM and 0.0061 µM, respectively.
For the molecule `Nc1ccc(-c2cnc([C@@H]3CCC4CC(c5c(-c6ccn[nH]6)ccc(Cl)c5F)=CC(=O)N43)[nH]2)c(F)n1` (stereo partly drawn) [Example 363, (3S)-3-(5-(6-Amino-2-fluoropyridin-3-yl)-1H-imidazol-2-yl)-7-(3-chloro-2-fluoro-6-(1H-pyrazol-5-yl)phenyl)-2,3,8,8a-tetrahydroindolizin-5(1H)-one], the half-maximal inhibitory concentration (IC50) is more than 0.1 µM at Factor XIa (setting [1]) and more than 1 µM at human plasma kallikrein (μM, kinetic reads).
With `Nc1ccc(-c2c[nH]c([C@@H]3CCC4CC(c5c(-c6cnc[nH]6)ccc(Cl)c5F)=CC(=O)N43)n2)c(F)n1` (stereo partly drawn) [Example 364, (3S)-3-(4-(6-Amino-2-fluoropyridin-3-yl)-1H-imidazol-2-yl)-7-(3-chloro-2-fluoro-6-(1H-imidazol-5-yl)phenyl)-2,3,8,8a-tetrahydroindolizin-5(1H)-one], the concentration for half-maximal inhibition (IC50) at Factor XIa (setting [1]) was determined as 0.087 µM; on human plasma kallikrein (setting [2]), 0.61 µM.
Take `O=C1C=C(c2c(-n3cc(C(F)(F)F)nn3)ccc(Cl)c2F)CC2CC[C@@H](c3ncc(-c4c[nH]c5ncncc45)[nH]3)N12` (stereo partly drawn) [Example 365, (3S)-3-(5-(7H-pyrrolo[2,3-d]pyrimidin-5-yl)-1H-imidazol-2-yl)-7-(3-chloro-2-fluoro-6-(4-(trifluoromethyl)-1H-1,2,3-triazol-1-yl)phenyl)-2,3,8,8a-tetrahydroindolizin-5(1H)-one]: the results for the concentration for half-maximal inhibition (IC50) at Factor XIa (setting [1]) and on human plasma kallikrein (setting [2]) were 0.0027 µM and 0.0073 µM, respectively.
`O=C1C=C(c2c(-n3cnnn3)ccc(Cl)c2F)CC2CC[C@@H](c3ncc(-c4cn[nH]c4Cl)[nH]3)N12` (stereo partly drawn) [Example 366, (3S)-3-(5-(5-chloro-1H-pyrazol-4-yl)-1H-imidazol-2-yl)-7-(3-chloro-2-fluoro-6-(1H-tetrazol-1-yl)phenyl)-2,3,8,8a-tetrahydroindolizin-5(1H)-one]: the IC50 worked out at 0.0014 µM on Factor XIa (setting [1]) and 0.019 µM at human plasma kallikrein (setting [2]).
As to `CS(=O)(=O)Nc1nccc(-c2cnc([C@@H]3CC[C@@H]4CC(c5c(-n6cnnn6)ccc(Cl)c5F)=CC(=O)N43)[nH]2)c1F` [Example 367, N-(4-(2-((3S,8aR)-7-(3-chloro-2-fluoro-6-(1H-tetrazol-1-yl)phenyl)-5-oxo-1,2,3,5,8,8a-hexahydroindolizin-3-yl)-1H-imidazol-5-yl)-3-fluoropyridin-2-yl)methanesulfonamide], the IC50 is 0.0004 µM at Factor XIa (setting [1]) and 0.0075 µM on human plasma kallikrein (setting [2]).
With `CNc1ccc(-c2cnc([C@@H]3CCC4CC(c5c(-n6cnnn6)ccc(Cl)c5F)=CC(=O)N43)[nH]2)c(F)n1` (stereo partly drawn) [Example 368, (3S)-7-(3-chloro-2-fluoro-6-(1H-tetrazol-1-yl)phenyl)-3-(5-(2-fluoro-6-(methylamino)pyridin-3-yl)-1H-imidazol-2-yl)-2,3,8,8a-tetrahydroindolizin-5(1H)-one], the IC50 on Factor XIa (setting [1]) turned out to be 0.0007 µM; at human plasma kallikrein (setting [2]), 0.0074 µM.
For `O=C(Nc1ccccc1-c1c[nH]c([C@@H]2CC[C@@H]3CC(c4c(-n5cnnn5)ccc(Cl)c4F)=CC(=O)N32)n1)C1CC1` [Example 369, N-(2-(2-((3S,8aR)-7-(3-chloro-2-fluoro-6-(1H-tetrazol-1-yl)phenyl)-5-oxo-1,2,3,5,8,8a-hexahydroindolizin-3-yl)-1H-imidazol-4-yl)phenyl)cyclopropanecarboxamide], the IC50 was 0.0002 µM on Factor XIa (setting [1]) and 0.0005 µM on human plasma kallikrein (setting [2]).
For `O=C(Nc1cnccc1-c1c[nH]c([C@@H]2CCC3CC(c4c(-n5cnnn5)ccc(Cl)c4F)=CC(=O)N32)n1)C1CC1` (stereo partly drawn) [Example 370, N-(4-(2-((3S)-7-(3-chloro-2-fluoro-6-(1H-tetrazol-1-yl)phenyl)-5-oxo-1,2,3,5,8,8a-hexahydroindolizin-3-yl)-1H-imidazol-4-yl)pyridin-3-yl)cyclopropanecarboxamide] the same measures were 0.0002 µM and 0.0009 µM.
For the molecule `O=C1C=C(c2c(-n3cnnn3)ccc(Cl)c2F)C[C@H]2CC[C@@H](c3ncc(-c4cc(F)ncc4Cl)[nH]3)N12` [Example 371, (3S,8aR)-7-(3-chloro-2-fluoro-6-(1H-tetrazol-1-yl)phenyl)-3-(5-(5-chloro-2-fluoropyridin-4-yl)-1H-imidazol-2-yl)-2,3,8,8a-tetrahydroindolizin-5(1H)-one], the half-inhibitory concentration (IC50) stood at 0.0363 µM at Factor XIa (setting [1]) and 0.0565 µM at human plasma kallikrein (setting [2]).
For `Nc1cc(-c2[nH]c([C@@H]3CC[C@@H]4CC(c5c(-n6cnnn6)ccc(Cl)c5F)=CC(=O)N43)nc2Cl)ccn1` [Example 372, (3S,8aR)-3-(5-(2-aminopyridin-4-yl)-4-chloro-1H-imidazol-2-yl)-7-(3-chloro-2-fluoro-6-(1H-tetrazol-1-yl)phenyl)-2,3,8,8a-tetrahydroindolizin-5(1H)-one] the same measures were 0.0003 µM and 0.0012 µM.
As to `O=C(O)c1ccc(-c2c[nH]c(C3CCC4CC(c5cc(Cl)ccc5-n5cc(C(F)(F)F)nn5)=CC(=O)N43)n2)s1` (stereo not shown) [Example 373, 5-(2-(7-(5-chloro-2-(4-(trifluoromethyl)-1H-1,2,3-triazol-1-yl)phenyl)-5-oxo-1,2,3,5,8,8a-hexahydroindolizin-3-yl)-1H-imidazol-4-yl)thiophene-2-carboxylic acid], the IC50 on Factor XIa (setting [1]) came out at 0.0007 µM; on human plasma kallikrein (setting [2]) it was 0.0396 µM.
With `CC1=CCc2c(-c3cnc(C4CCC5CC(c6c(-n7cnnn7)ccc(Cl)c6F)=CC(=O)N54)[nH]3)ccnc21` (stereo not shown) [Example 374, 7-(3-chloro-2-fluoro-6-(1H-tetrazol-1-yl)phenyl)-3-(5-(7-methyl-5H-cyclopenta[b]pyridin-4-yl)-1H-imidazol-2-yl)-2,3,8,8a-tetrahydroindolizin-5(1H)-one], the IC50 at Factor XIa (setting [1]) amounted to 0.0008 µM; on human plasma kallikrein (setting [2]), 0.0015 µM.
Take `Nc1ccc(-c2cnc([C@@H]3CC[C@@H]4CC(c5cc(Cl)ccc5-n5cnnn5)CC(=O)N43)[nH]2)c(F)n1` (stereo partly drawn) [Example 376, (3S,8aR)-3-(5-(6-amino-2-fluoropyridin-3-yl)-1H-imidazol-2-yl)-7-(5-chloro-2-(1H-tetrazol-1-yl)phenyl)hexahydroindolizin-5(1H)-one]: the 50% inhibitory concentration (IC50) on Factor XIa (setting [1]) stood at 0.0073 µM; at human plasma kallikrein (setting [2]), 0.209 µM.
Turning to `O=C1C[C@H](c2c(-n3cnnn3)ccc(Cl)c2F)C[C@H]2CC[C@@H](c3ncc(-c4ccnc(CO)c4F)[nH]3)N12` [Example 378, (3S,7R,8aR)-7-(3-chloro-2-fluoro-6-(1H-tetrazol-1-yl)phenyl)-3-(5-(3-fluoro-2-(hydroxymethyl)pyridin-4-yl)-1H-imidazol-2-yl)hexahydroindolizin-5(1H)-one], the IC50 on Factor XIa (setting [1]) came to 0.0145 µM; on human plasma kallikrein (setting [2]), 0.115 µM.

Usually IC50 stands for the concentration that inhibits the measured activity by half.
